Assays:
Assay in all cases: relative viability (nuclei count vs DMSO), 5 days (fraction); higher = more cells survive
Lapatinib + Pemetrexed = compound: CS(=O)(=O)CCNCc1ccc(-c2ccc3ncnc(Nc4ccc(OCc5cccc(F)c5)c(Cl)c4)c3c2)o1 [Lapatinib] + Nc1nc2[nH]cc(CCc3ccc(C(=O)N[C@@H](CCC(=O)O)C(=O)O)cc3)c2c(=O)[nH]1 [Pemetrexed] (partner 0.2 µM)
How it was run: (§1)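 For relative viability, nuclei counts in treated wells were divided by those in vehicle wells. Lung cancer cell lines had been pin-tool dosed in 1536-well plates the day after seeding and cultured for 5 days, then fixed and stained in one step (final 0.05% Triton X-100, 1% formaldehyde, 1 ug/ml Hoechst) and imaged at 4×. Doses were one drug alone or a fixed anchor-drug dose plus five library-drug doses (not always all listed) in √10 steps, and values are duplicate-plate medians.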

Wnt-C59 + Bortezomib = compound: CC1=NC=CC(=C1)C2=CC=C(C=C2)CC(=O)NC3=CC=C(C=C3)C4=CN=CC=C4 [Wnt-C59] + CC(C)C[C@H](NC(=O)[C@H](Cc1ccccc1)NC(=O)c1cnccn1)B(O)O [Bortezomib] (partner 0.002 µM)
How it was run: as §1

Wnt-C59 + Pictilisib = compound: CC1=NC=CC(=C1)C2=CC=C(C=C2)CC(=O)NC3=CC=C(C=C3)C4=CN=CC=C4 [Wnt-C59] + CS(=O)(=O)N1CCN(Cc2cc3nc(-c4cccc5[nH]ncc45)nc(N4CCOCC4)c3s2)CC1 [Pictilisib] (partner 1 µM)
How it was run: as §1

Wnt-C59 + Linsitinib = compound: CC1=NC=CC(=C1)C2=CC=C(C=C2)CC(=O)NC3=CC=C(C=C3)C4=CN=CC=C4 [Wnt-C59] + C[C@]1(O)C[C@@H](c2nc(-c3ccc4ccc(-c5ccccc5)nc4c3)c3c(N)nccn32)C1 [Linsitinib] (partner 1 µM)
How it was run: as §1

Cell Line	relative viability (Lapatinib + Pemetrexed; first compound 0.06325 µM)	relative viability (Lapatinib + Pemetrexed; first compound 0.2 µM)	relative viability (Lapatinib + Pemetrexed; first compound 0.6325 µM)	relative viability (Lapatinib + Pemetrexed; first compound 2 µM)	relative viability (Wnt-C59 + Bortezomib; first compound 0.001 µM)	relative viability (Wnt-C59 + Bortezomib; first compound 0.01 µM)	relative viability (Wnt-C59 + Bortezomib; first compound 0.03162 µM)	relative viability (Wnt-C59 + Bortezomib; first compound 0.1 µM)	relative viability (Wnt-C59 + Pictilisib; first compound 0.001 µM)	relative viability (Wnt-C59 + Pictilisib; first compound 0.01 µM)	relative viability (Wnt-C59 + Pictilisib; first compound 0.03162 µM)	relative viability (Wnt-C59 + Pictilisib; first compound 0.1 µM)	relative viability (Wnt-C59 + Linsitinib; first compound 0.001 µM)	relative viability (Wnt-C59 + Linsitinib; first compound 0.01 µM)	relative viability (Wnt-C59 + Linsitinib; first compound 0.03162 µM)	relative viability (Wnt-C59 + Linsitinib; first compound 0.1 µM)	relative viability (Lapatinib + Pemetrexed; first compound 0.02 µM)
NCI-H522	0.794	0.875	0.994	0.781													
NCI-H650	0.881	0.913	1.08	0.963	0.85	1.08	0.72	0.888	0.838	0.94	0.982	0.685	0.919	0.916	0.828	0.926	
NCI-H460	0.0621	0.0581	0.0692	0.0618	0.934	1.06	1.14	1.1	0.33	0.327	0.373	0.32	0.789	0.809	0.869	0.7	0.0637
HCC-827	0.263	0.285	0.239	0.202	1.05	1.14	0.97	1.05	0.83	1.07	1.15	0.971	1	0.966	0.977	0.884	0.26
NCI-H647	0.149	0.162	0.168	0.158	1.06	1.02	0.842	1.06	0.35	0.374	0.39	0.429	1.08	1.15	1.18	1.22	0.176
SW 1573	0.716	0.883	0.882	0.759	1.04	1.1	1.11	1.04	0.452	0.544	0.563	0.404	0.696	0.806	0.874	0.862	
NCI-H2170	0.249	0.271	0.274	0.198					0.3	0.279	0.309	0.383					0.272
NCI-H358	0.157	0.16	0.167	0.189					0.311	0.345	0.314	0.354	0.83	0.641	0.923	0.682	0.173
COR-L 105	1.16	0.953	0.68	0.619	0.579	0.772	0.685	0.662	0.368	0.315	0.413	0.446	1.26	0.988	0.765	0.804	1.09
PC-3 [JPC-3]	1.13		0.995	0.588	0.874	0.782	0.881	0.856	0.832	0.765	0.822	0.72	0.964	0.942	1.01	0.961	
NCI-H1993		0.578	0.607	0.543	1.14	1.12	1.21	1.2	0.979	0.833	0.902	0.84	0.703	0.811	0.699	0.799	0.595

Reference: the supplement of paper PMC10307832
